The results in this text go back to ChEMBL document CHEMBL1150976, “The selectivity of protein kinase inhibitors: a further update” (Biochem J, 2007).

The target in assay [1] is T1, MAP kinase-activated protein kinase 5 (Homo sapiens) (UniProt Q8IW41).
T1 sequence (whole entry): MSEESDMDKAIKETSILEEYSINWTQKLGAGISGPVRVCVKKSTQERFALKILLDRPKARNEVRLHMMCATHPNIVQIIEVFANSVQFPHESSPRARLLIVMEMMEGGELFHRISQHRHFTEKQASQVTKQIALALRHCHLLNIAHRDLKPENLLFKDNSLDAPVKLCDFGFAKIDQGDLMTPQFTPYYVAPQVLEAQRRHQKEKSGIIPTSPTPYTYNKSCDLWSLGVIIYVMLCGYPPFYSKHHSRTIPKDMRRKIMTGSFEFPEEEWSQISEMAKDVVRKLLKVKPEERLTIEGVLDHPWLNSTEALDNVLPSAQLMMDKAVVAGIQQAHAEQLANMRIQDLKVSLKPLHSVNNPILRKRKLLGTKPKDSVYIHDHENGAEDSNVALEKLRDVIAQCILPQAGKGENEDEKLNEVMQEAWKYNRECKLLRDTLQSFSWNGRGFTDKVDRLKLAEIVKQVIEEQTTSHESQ
The assay is described as follows: Percentage PRAK activity remaining in the presence of 2uM inhibitor.

Assay [2] deals with T2, Serine/threonine-protein kinase BRSK2 (Homo sapiens) (UniProt Q8IWQ3).
T2 sequence (whole entry): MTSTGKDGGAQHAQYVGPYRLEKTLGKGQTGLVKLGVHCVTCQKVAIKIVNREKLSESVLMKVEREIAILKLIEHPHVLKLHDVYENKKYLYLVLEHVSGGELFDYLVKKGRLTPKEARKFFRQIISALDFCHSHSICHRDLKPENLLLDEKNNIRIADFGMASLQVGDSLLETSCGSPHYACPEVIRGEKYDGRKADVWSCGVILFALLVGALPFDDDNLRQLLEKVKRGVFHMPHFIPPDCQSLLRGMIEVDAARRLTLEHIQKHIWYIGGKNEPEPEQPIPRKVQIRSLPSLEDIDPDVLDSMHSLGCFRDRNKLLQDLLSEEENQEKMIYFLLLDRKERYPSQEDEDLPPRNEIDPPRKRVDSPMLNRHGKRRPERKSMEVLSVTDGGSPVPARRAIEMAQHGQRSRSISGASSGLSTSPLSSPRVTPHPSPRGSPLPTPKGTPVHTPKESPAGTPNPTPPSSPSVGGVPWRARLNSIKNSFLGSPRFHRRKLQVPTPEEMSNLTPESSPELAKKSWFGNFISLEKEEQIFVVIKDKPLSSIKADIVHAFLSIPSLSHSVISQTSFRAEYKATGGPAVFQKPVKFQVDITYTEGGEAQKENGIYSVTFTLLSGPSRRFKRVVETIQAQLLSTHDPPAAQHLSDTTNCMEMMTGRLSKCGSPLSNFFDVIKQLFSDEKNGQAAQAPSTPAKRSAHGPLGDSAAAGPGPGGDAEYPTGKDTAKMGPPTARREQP
In words: Percentage BRSK2 activity remaining in the presence of 2uM inhibitor.

Assay [3] deals with T3, 3-phosphoinositide-dependent protein kinase 1 (Homo sapiens) (UniProt O15530).
T3 sequence (whole entry): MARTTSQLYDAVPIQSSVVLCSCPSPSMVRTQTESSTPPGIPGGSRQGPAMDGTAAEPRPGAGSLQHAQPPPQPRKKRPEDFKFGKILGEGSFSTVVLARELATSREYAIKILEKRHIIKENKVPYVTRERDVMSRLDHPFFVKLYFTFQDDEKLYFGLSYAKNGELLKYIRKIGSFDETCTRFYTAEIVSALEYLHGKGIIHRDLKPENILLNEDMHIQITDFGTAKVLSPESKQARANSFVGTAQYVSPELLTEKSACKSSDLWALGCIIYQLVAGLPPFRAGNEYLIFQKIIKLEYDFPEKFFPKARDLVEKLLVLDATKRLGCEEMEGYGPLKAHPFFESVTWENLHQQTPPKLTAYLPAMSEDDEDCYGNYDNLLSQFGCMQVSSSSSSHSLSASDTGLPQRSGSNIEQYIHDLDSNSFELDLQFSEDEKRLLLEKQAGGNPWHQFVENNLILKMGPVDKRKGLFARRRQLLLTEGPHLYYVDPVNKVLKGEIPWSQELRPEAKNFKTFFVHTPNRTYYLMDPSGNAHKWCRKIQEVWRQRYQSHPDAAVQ
In words: Percentage PDK1 activity remaining in the presence of 2uM inhibitor.

The next assay is filed under the species Homo sapiens. In words: Percentage PHK activity remaining in the presence of 2uM inhibitor.
In assay [4] the target is Ribosomal protein S6 kinase alpha-3 (Homo sapiens) (UniProt P51812). The assay is described as follows: Percentage RSK2 activity remaining in the presence of 2uM inhibitor.
Assay [5] concerns the target Protein kinase C alpha type (Homo sapiens) (UniProt P17252). The assay is described as follows: Percentage PKCalpha activity remaining in the presence of 2uM inhibitor.
For assay [6], the target named is Serine/threonine-protein kinase PAK 5 (Homo sapiens) (UniProt Q9P286). The assay is described as follows: Percentage PAK5 activity remaining in the presence of 2uM inhibitor.
Assay [7] addresses Serine/threonine-protein kinase Chk2 (Homo sapiens) (UniProt O96017). In words: Percentage CHK2 activity remaining in the presence of 2uM inhibitor.
In assay [8] the target is Homeodomain-interacting protein kinase 2 (Homo sapiens) (UniProt Q9H2X6). In words: Percentage HIPK2 activity remaining in the presence of 2uM inhibitor. As to conditions: filed as antagonist.
Assay [9] has as its target Mitogen-activated protein kinase 14 (Homo sapiens, UniProt Q16539). In words: Percentage p38alpha activity remaining in the presence of 2uM inhibitor.
Assay [10] has as its target Maternal embryonic leucine zipper kinase (Homo sapiens) (UniProt Q14680). The assay is described as follows: Percentage MELK activity remaining in the presence of 3uM inhibitor.
Assay [11] has as its target Ribosomal protein S6 kinase alpha-5 (Homo sapiens) (UniProt O75582). In words: Percentage MSK1 activity remaining in the presence of 3uM inhibitor.
In assay [12] the target is MAP kinase-interacting serine/threonine-protein kinase 2 (Homo sapiens) (UniProt Q9HBH9). The assay is described as follows: Percentage MNK2 activity remaining in the presence of 3uM inhibitor.
Assay [13] has as its target MAP kinase-activated protein kinase 2 (Homo sapiens) (UniProt P49137). The assay is described as follows: Percentage MAPKAPK2 activity remaining in the presence of 3uM inhibitor.
Assay [14] concerns the target T1, MAP kinase-activated protein kinase 5 (Homo sapiens). The assay is described as follows: Percentage PRAK activity remaining in the presence of 3uM inhibitor.
Another assay concerns the target Aurora kinase B (Homo sapiens, UniProt Q96GD4). The assay is described as follows: Percentage Aurora B activity remaining in the presence of 3uM inhibitor.
For a further assay, the species on record is Rattus norvegicus. The assay is described as follows: Percentage AMPK activity remaining in the presence of 3uM inhibitor.
The target of assay [15] is Serine/threonine-protein kinase Chk2 (Homo sapiens) (UniProt O96017). In words: Percentage CHK2 activity remaining in the presence of 3uM inhibitor.
Chain of Serine/threonine-protein kinase Chk2 (Homo sapiens) (O96017 whole entry): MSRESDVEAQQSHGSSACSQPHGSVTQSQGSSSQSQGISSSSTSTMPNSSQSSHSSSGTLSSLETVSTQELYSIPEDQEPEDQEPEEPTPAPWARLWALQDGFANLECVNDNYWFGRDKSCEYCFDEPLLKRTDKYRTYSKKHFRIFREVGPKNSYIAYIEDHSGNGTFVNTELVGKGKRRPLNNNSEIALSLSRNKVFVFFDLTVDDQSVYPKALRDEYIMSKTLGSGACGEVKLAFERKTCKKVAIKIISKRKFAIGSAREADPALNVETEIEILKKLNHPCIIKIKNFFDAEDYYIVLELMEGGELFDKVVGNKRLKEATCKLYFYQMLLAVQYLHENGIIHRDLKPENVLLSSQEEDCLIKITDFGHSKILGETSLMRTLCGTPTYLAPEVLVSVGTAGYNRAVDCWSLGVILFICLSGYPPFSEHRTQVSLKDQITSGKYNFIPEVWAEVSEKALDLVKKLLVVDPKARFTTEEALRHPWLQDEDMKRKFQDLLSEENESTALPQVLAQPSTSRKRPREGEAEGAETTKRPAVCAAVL

Chain of MAP kinase-activated protein kinase 2 (Homo sapiens) (P49137 whole entry, looked up): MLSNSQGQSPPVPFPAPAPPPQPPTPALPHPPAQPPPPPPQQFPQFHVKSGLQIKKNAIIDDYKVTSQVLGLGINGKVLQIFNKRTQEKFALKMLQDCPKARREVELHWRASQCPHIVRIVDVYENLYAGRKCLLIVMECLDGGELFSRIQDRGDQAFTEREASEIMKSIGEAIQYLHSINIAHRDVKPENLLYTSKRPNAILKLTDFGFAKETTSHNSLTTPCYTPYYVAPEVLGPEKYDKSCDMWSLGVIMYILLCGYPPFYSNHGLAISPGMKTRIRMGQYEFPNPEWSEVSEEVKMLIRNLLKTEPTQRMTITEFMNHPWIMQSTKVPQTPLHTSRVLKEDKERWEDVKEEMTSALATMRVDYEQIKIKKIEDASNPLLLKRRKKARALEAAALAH
Chain of Ribosomal protein S6 kinase alpha-3 (Homo sapiens) (P51812 whole entry): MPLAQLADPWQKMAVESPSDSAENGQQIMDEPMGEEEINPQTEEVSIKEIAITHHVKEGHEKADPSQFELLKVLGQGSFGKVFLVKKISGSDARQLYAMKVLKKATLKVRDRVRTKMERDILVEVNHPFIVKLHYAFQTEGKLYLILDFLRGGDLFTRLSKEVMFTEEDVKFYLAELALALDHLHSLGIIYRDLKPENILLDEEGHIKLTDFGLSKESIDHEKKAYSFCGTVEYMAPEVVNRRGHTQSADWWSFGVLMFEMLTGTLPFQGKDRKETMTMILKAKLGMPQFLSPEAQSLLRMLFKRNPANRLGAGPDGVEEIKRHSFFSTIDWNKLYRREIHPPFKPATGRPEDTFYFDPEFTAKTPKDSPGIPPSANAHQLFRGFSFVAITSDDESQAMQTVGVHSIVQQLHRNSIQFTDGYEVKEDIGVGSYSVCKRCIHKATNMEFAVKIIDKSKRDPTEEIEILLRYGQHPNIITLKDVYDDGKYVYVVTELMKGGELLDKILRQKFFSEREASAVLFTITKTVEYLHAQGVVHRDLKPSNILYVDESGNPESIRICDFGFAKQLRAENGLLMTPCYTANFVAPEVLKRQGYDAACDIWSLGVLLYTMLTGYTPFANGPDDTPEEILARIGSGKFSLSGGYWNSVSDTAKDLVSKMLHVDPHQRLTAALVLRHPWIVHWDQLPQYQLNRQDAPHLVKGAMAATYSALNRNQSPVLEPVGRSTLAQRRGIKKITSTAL
Chain of MAP kinase-interacting serine/threonine-protein kinase 2 (Homo sapiens) (Q9HBH9 whole entry, looked up): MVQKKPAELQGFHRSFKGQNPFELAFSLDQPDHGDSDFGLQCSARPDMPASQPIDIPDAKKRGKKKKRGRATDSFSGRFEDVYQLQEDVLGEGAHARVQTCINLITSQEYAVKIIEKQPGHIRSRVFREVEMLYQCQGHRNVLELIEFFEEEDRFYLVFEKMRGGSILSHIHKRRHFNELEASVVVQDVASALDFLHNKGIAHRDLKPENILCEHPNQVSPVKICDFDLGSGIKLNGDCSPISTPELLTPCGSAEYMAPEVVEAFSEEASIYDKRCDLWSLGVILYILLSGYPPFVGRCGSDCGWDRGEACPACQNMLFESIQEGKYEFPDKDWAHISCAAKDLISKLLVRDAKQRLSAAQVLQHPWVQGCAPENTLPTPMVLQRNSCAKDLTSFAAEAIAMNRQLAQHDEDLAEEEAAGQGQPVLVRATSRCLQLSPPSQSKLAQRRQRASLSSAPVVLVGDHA
Chain of Mitogen-activated protein kinase 14 (Q16539 whole entry): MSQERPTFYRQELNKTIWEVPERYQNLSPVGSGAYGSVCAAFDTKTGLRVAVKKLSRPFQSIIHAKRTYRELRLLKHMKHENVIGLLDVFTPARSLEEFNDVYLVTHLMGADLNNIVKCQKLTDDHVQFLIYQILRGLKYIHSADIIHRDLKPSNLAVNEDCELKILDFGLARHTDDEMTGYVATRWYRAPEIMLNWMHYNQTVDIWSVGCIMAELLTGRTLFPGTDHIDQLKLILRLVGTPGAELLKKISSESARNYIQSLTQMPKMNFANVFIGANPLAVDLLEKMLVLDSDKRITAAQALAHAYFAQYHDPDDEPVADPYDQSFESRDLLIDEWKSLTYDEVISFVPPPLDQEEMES
Chain of Ribosomal protein S6 kinase alpha-5 (Homo sapiens) (O75582 whole entry, looked up): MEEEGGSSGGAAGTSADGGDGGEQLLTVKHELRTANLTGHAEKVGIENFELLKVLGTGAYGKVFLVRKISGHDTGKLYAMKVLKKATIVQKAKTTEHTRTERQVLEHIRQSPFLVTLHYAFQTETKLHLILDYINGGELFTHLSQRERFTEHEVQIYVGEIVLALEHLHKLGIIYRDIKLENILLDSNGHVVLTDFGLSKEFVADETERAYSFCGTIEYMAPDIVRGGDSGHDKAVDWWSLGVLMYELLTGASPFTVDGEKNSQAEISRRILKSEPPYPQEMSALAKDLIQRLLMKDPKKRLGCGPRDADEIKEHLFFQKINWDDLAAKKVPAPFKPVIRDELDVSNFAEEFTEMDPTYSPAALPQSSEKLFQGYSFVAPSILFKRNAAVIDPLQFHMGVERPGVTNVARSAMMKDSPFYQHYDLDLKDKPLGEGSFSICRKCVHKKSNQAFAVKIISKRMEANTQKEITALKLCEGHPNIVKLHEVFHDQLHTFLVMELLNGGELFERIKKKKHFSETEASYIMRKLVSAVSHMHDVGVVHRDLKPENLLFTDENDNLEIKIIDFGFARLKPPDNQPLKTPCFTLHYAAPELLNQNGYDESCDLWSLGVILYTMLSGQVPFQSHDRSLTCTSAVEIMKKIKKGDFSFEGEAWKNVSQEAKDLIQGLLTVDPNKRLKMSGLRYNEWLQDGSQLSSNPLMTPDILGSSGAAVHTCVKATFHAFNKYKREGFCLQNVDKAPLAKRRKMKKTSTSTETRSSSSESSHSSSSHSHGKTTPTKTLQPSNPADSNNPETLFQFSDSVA
Chain of Maternal embryonic leucine zipper kinase (Homo sapiens) (Q14680 whole entry, looked up): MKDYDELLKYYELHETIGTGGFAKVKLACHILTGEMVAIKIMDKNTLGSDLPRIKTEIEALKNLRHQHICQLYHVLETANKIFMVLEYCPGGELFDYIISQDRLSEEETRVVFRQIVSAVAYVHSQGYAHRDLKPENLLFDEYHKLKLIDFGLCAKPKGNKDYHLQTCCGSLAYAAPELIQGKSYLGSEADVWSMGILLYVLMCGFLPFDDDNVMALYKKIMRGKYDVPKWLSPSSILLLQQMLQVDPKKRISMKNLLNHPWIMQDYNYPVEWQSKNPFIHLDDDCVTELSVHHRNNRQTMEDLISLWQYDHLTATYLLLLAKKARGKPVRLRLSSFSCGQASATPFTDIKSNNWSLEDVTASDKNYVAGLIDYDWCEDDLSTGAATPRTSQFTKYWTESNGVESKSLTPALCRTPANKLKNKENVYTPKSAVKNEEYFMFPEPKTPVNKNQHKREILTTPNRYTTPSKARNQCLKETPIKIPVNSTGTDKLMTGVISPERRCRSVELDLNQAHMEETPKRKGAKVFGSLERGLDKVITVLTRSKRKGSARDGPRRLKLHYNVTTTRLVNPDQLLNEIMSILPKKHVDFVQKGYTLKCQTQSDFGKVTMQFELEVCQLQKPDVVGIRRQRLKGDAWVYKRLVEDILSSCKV
Chain of Aurora kinase B (Q96GD4 whole entry): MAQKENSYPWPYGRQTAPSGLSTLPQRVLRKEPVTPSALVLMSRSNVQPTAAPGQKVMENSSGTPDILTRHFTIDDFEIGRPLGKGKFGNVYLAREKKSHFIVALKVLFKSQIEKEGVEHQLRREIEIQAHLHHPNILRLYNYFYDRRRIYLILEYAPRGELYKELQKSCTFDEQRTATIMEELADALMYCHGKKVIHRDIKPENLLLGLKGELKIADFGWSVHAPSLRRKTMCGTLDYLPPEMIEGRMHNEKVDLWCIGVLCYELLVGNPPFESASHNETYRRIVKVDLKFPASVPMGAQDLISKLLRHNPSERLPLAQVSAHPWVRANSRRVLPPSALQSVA

Regarding `Cn1cc(C2=C(c3ccc(Cl)cc3Cl)C(=O)NC2=O)c2ccccc21`, the Activity was 90% in assay [1]; 83% in assay [2]; 92% in assay [3]; 87% in the assay filed under Homo sapiens; 67% in assay [4]; 73% in assay [5]. Further, the Activity in [6] is 85%; in assay [7], 93%; in assay [8], 15%; in assay [9], 77%.
For `Cc1ccc(-c2c(C(=O)CF)n(CCCO)c3ncnc(N)c23)cc1`, the Activity in assay [10] came to 65%; in assay [11] it was 75%; in assay [12] it was 65%; in [13], 94%; in assay [14], 97%; on Aurora kinase B, 59%. For the same compound, the Activity in the assay listed under Rattus norvegicus was 79%; in [15], 81%.
